Values quoted from earlier work in patent US20050288375A1, “Method and composition for treating neurodegenerative disorders” (Myriad Genetics, Incorporated, priority 2003, published 2005).

Assays:
[1] = rofecoxib at 25 mg daily; naproxen in the same trial
[2] = test system: brain cells after cerebral ischemia; details: rats
[3] = not given; remark: listed apart in the source

Structure (SMILES)	efficacy for treating AD [1]	side effects at high doses	other results
COc1ccc2cc([C@H](C)C(=O)O)ccc2c1 [Naproxen]	failed to show efficacy	–	–
c1ccc(C2(N3CCCCC3)CCCCC2)cc1 [PCP, Phencyclidine]	–	–	destruction of brain cells after cerebral ischemia [2]: prevent the destruction of brain cells
COc1ccc2c(c1)[C@@]13CCCC[C@H]1[C@@H](C2)N(C)CC3 [dextromethorphan, (+)-3-methoxy-N-methylmorphinan]	–	drowsiness, nausea, and decreased coordination	–
CN1CC[C@]23CCCC[C@H]2[C@H]1Cc1ccc(O)cc13 [dextrorphan, (+)-3-hydroxy-N-methylmorphinan]	–	drowsiness, nausea, and decreased coordination	–
CC12CC3CC(C)(C1)CC(N)(C3)C2 [memantine, 1-amino-3,5-dimethyl adamantane]	–	–	efficacy in treating mild-to-moderate AD [3]: showed efficacy
CS(=O)(=O)c1ccc(C2=C(c3ccccc3)C(=O)OC2)cc1 [rofecoxib]	failed to show efficacy	–	–
